Test results: PubChem BioAssay (NCI)
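Growth conditions: 96-well plates. Treatment: test compound, 48 hours, 5 concentrations. Analysis: linear interpolation between bracketing concentrations; unreached endpoints set to highest concentration. The concentration for 50% growth inhibition is given as GI50. TGI: total growth inhibition.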

Experiments:
Assay in all cases: inhibition of tumour cell growth, NCI panel, 48 h
[1] = test system: NCI-H23 lung
[2] = test system: NCI-H460 lung
[3] = test system: NCI-H522 lung
[4] = test system: NCI/ADR-RES ovarian
[5] = test system: OVCAR-3 ovarian
[6] = test system: OVCAR-4 ovarian
[7] = test system: OVCAR-5 ovarian
[8] = test system: OVCAR-8 ovarian
[9] = test system: PC-3 prostate
[10] = test system: RPMI-8226 leukemia
[11] = test system: RXF 393 renal
[12] = test system: SF-268 CNS
[13] = test system: SF-295 CNS
[14] = test system: SF-539 CNS
[15] = test system: SK-MEL-2 melanoma
[16] = test system: SK-MEL-28 melanoma
[17] = test system: SK-MEL-5 melanoma
[18] = test system: SK-OV-3 ovarian
[19] = test system: SN12C renal
[20] = test system: SNB-19 CNS
[21] = test system: SNB-75 CNS
[22] = test system: SR leukemia
[23] = test system: SW-620 colon
[24] = test system: T-47D breast
[25] = test system: TK-10 renal
[26] = test system: U251 CNS
[27] = test system: UACC-257 melanoma
[28] = test system: UACC-62 melanoma
[29] = test system: UO-31 renal

CC(C)(O)/C=C/C(=O)[C@](C)(O)[C@H]1[C@H](O)C[C@@]2(C)[C@H]3CC=C4[C@@H](C[C@H](O)C(=O)C4(C)C)[C@]3(C)C(=O)C[C@]12C
TGI [1]: > 16700 nM
GI50 [2]: 24.7 nM
TGI [2]: > 16700 nM
GI50 [3]: 28.7 nM
TGI [3]: 184 nM
GI50 [4]: 71.4 nM
GI50 [5]: 39.5 nM
TGI [5]: 1020 nM
GI50 [6]: 5.58 nM
TGI [6]: 45.1 nM
GI50 [7]: 42.9 nM
TGI [7]: > 16700 nM
GI50 [8]: 496 nM
TGI [8]: > 16700 nM
GI50 [9]: 283 nM
TGI [9]: > 16700 nM
GI50 [10]: 41.9 nM
TGI [10]: > 6220 nM
GI50 [11]: 14.3 nM
TGI [11]: 31.8 nM
GI50 [12]: 19.6 nM
TGI [12]: 88.2 nM
GI50 [13]: 102 nM
TGI [13]: 872 nM
GI50 [14]: 16.7 nM
TGI [14]: 130 nM
GI50 [15]: 16.2 nM
TGI [15]: 52.5 nM
GI50 [16]: 13.9 nM
TGI [16]: 39.3 nM
GI50 [17]: 58 nM
TGI [17]: 2310 nM
GI50 [18]: 56 nM
TGI [18]: 236 nM
GI50 [19]: 46.6 nM
TGI [19]: > 12900 nM
GI50 [20]: 75.2 nM
TGI [20]: 3250 nM
GI50 [21]: 28.9 nM
TGI [21]: 108 nM
GI50 [22]: 41.4 nM
TGI [22]: > 16700 nM
GI50 [23]: 28.1 nM
TGI [23]: > 16700 nM
GI50 [24]: 217 nM
TGI [24]: > 14000 nM
GI50 [25]: 30.7 nM
TGI [25]: 89.5 nM
GI50 [26]: 54.1 nM
TGI [26]: 262 nM
GI50 [27]: 42 nM
TGI [27]: 541 nM
GI50 [28]: 26.3 nM
TGI [28]: 3720 nM
GI50 [29]: 43.2 nM
TGI [29]: 312 nM
